Where a name gives a salt, the structure may show the parent alone.
Biological target: Prostate-specific antigen (Homo sapiens) (UniProt P07288)
Test: Concentration required for inhibition of 50% of the cleavage of para-nitroanilide from MeO-Suc-Arg-Pro-Tyr-pNA.HCl by Prostate specific antigen PSA

Prostate-specific antigen (Homo sapiens), sequence (P07288 whole entry, looked up): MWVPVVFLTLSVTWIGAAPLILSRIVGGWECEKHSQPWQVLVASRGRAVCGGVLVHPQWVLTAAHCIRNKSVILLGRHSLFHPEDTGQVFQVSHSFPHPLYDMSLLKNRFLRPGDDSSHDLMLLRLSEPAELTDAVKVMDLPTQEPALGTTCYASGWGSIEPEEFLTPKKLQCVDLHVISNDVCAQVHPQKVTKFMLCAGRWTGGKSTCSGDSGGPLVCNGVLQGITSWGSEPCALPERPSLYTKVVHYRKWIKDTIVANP

Row | IC50 [µM] | Compound
1 | 1.34 | NCc1ccc(COC(=O)[C@@H]2[C@H](Cc3ccccc3)C(=O)N2C(=O)Cc2cccc(C(=O)O)c2)cc1 [(2S,3S)-3-Benzyl-1-[2-(3-carboxy-phenyl)-acetyl]-4-oxo-azetidine-2-carboxylic acid 4-aminomethyl-benzyl ester; TFA]
2 | > 30 | O=C(O)c1ccc(COC(=O)[C@@H]2[C@H](Cc3ccccc3)C(=O)N2C(=O)Cc2cccc(C(=O)O)c2)cc1 [3-Benzyl-1-[2-(3-carboxy-phenyl)-acetyl]-4-oxo-azetidine-2-carboxylic acid 4-carboxy-benzyl ester]
